Series [1] in a line: Dose normalized AUC (0 to infinity) in mouse at 5.5 mg/kg, ip by HPLC/MS/MS analysis. It is filed as ADME, organism-based. The settings on record: in vivo.
Series [2] can be described thus: Effect on cleaved PARP level in human NCI-H2171 cells assessed as fold change at 100 nM measured after 14 days by Western blot analysis (reference value: 1.00). The settings on record: time 14 day. It is filed as functional. For orientation: A western blot detects proteins with antibodies after separation by electrophoresis.
Series [3] in a line: Toxicity in rat assessed as congestion in lymphoid organs measured for 28 days. The settings on record: in vivo, 672 h, time 28 day.
A short description of series [4]: Dose normalized AUC (0 to last) in mouse tumor at 5 mg/kg, po by HPLC/MS/MS analysis. It is filed as ADME, organism-based, Neoplasm. To be noted: in vivo.
A short description of series [5]: Toxicity in rat assessed as effect on hemodynamics measured for 28 days. The settings on record: in vivo, 672 h, time 28 day.
Series [6] is described as follows: Toxicity in rat assessed as suppression of neutrophil in bone marrow measured for 28 days. It is filed as cell-based. The settings on record: 672 h, time 28 day.
Series [7] deals with NCI-H526. Put plainly: In vivo inhibition of LSD1 in human NCI-H526 cells xenografted in nude mouse assessed as change in TOX3 gene expression administrated daily for 5 days by qRT-PCR analysis. It is filed as functional, organism-based. The settings on record: dose 0.02-135 mg/kg, time 5.0 day. On the technique in general: In xenograft studies the graft and the host belong to different species.

Series [8] is described as follows: Effect on cleaved PARP level in human NCI-H526 cells assessed as fold change at 10 nM measured after 7 days by Western blot analysis (reference value: 1.00). It is filed as functional. The settings on record: time 7 day.
Series [9] is described as follows: Effect on cleaved PARP level in human NCI-H2171 cells assessed as relative expression at 10 nM measured after 14 days by Western blot analysis (reference value: 0.01). The settings on record: time 14 day. It is filed as functional.
Series [10] can be described thus: Effect on cleaved PARP level in human NCI-H2171 cells assessed as fold change at 1000 nM measured after 7 days by Western blot analysis (reference value: 1.00). To be noted: time 7 day. It is filed as functional.
A short description of series [11]: Effect on cleaved PARP level in human NCI-H1694 cells assessed as relative expression at 1000 nM measured after 10 days by Western blot analysis (reference value: .31). It is filed as functional. The settings on record: time 10 day.
Series [12] is described as follows: Toxicity in dog assessed as declining clinical condition measured for 28 days. Also on record: species or system Canis lupus familiaris. To be noted: in vivo, 672 h, time 28 day.
Series [13] concerns SHP77. Briefly: Antitumor activity against human SHP77 cells xenografted in nude mouse assessed as mean tumor volume at […] mg/kg, po administered daily measured twice weekly (reference value: 2193 +/- 293 mm3). It is filed as functional. To be noted: 1.25 mg/kg.
For series [14], the system named is NCI-H526. Put plainly: Antitumor activity against human NCI-H526 cells xenografted in nude mouse assessed as tumor growth inhibition at 1.5 mg/kg, po administered daily measured twice weekly relative to control. It is filed as functional. The settings on record: read-out: TGI.
Series [15] has as its system SHP77. Briefly: Effect on NCAM gene expression in human SHP77 cells at 1 uM measured after 4 days by qRT-PCR analysis. It is filed as functional, cell-based. The settings on record: time 4.0 day.
The nature of series [16]: Effect on cleaved PARP level in human NCI-H1694 cells assessed as relative expression at 1000 nM measured after 14 days by Western blot analysis (reference value: 0.25). It is filed as functional. To be noted: time 14 day.
Series [17] in a line: Effect on cleaved PARP level in human NCI-H2171 cells assessed as relative expression at 100 nM measured after 7 days by Western blot analysis (reference value: 0.02). It is filed as functional. To be noted: time 7 day.
The subject of another series is NCI-H1417. Put plainly: In vivo inhibition of LSD1 in human NCI-H1417 cells xenografted in nude mouse assessed as change in SAMD5 gene expression measured after 24 hrs post single administration by qRT-PCR analysis. It is filed as functional, organism-based. The settings on record: dose 0.02-135 mg/kg.
Series [18] can be described thus: Effect on cleaved PARP level in human NCI-H69 cells assessed as relative expression at 10 nM measured after 7 days by Western blot analysis (reference value: 0.02). The settings on record: time 7 day. It is filed as functional.
Series [19] relates to NCI-H526. Briefly: In vivo inhibition of LSD1 in human NCI-H526 cells xenografted in nude mouse assessed as change in ZEB1 gene expression administrated daily for 5 days by qRT-PCR analysis. It is filed as functional, organism-based. The settings on record: dose 0.02-135 mg/kg, time 5.0 day.
Series [20] can be described thus: Effect on cleaved PARP level in human NCI-H146 cells assessed as fold change at 100 nM measured after 7 days by Western blot analysis (reference value: 1.00). To be noted: time 7 day. It is filed as functional.
The nature of series [21]: Effect on cleaved PARP level in human NCI-H1694 cells assessed as fold change at 1000 nM measured after 10 days by Western blot analysis (reference value: 1.00). It is filed as functional. To be noted: time 10 day.
Series [22] is described as follows: Effect on cleaved PARP level in human NCI-H1694 cells assessed as relative expression at 10 nM measured after 7 days by Western blot analysis (reference value: 0.25). It is filed as functional. To be noted: time 7 day.

The source made the active and inactive calls. The calls are words filed in the database; no cut-off is given here.

As to `c1ccc([C@@H]2C[C@H]2NC2CCNCC2)cc1`, the AUC/dose in series [1] was determined as 172 kg·ng·h/mL/mg.
As for `O=C(O)c1ccc(CN2CCC(CN[C@@H]3C[C@H]3c3ccccc3)CC2)cc1` [GSK2879552], the “fold change (FC)” value in series [2] turned out to be 1.8; in series [8] it was 0.85; in [10], 2.18; in [20] it was 1.02; in [21] it was 0.71. The Activity entry is given as “Toxic” in series [3]; “Toxic” in [5]; “Toxic” in [6]; 0.01 in [9]; 0.22 in [11]; “Toxic” in series [12]. Besides, the Activity in the series with SHP77 [13] is listed as 1845 mm3; in [16] it was 0.21; in [17] it was 0.03; in series [18] it was 0.02; in series [22] it was 0.3. Moreover, the AUClast/dose in series [4] amounted to 464 ng·h/mL/mg/kg. The inhibition result with NCI-H526 [7], in the series with NCI-H1417 and in the series with NCI-H526 [19] was “Dose-Dependent Effect” each time. In addition, the inhibition in vivo at 1.5 mg/kg with NCI-H526 [14] is 57%. Besides, in the series on SHP77 [15], the result was inactive.
